ChEMBL document CHEMBL1157539, “Thousands of chemical starting points for antimalarial lead identification” (Nature, 2010)

Tested on: Plasmodium falciparum
Test: GSK_TCMDC: Inhibition of Plasmodium falciparum 3D7 in whole erythrocytes, using parasite LDH activity as an index of growth.
Format: functional, organism-based
Settings: Plasmodium falciparum, 3D7

Structure (SMILES)	XC50 [nM]
CCOC(=O)C1=C(C)NC2=C(C(=O)CC(C)(C)C2)C1c1ccc(Cl)cc1 (centres undefined)	923
CCCCCCN1CCCN(Cc2ccc(C(=O)Nc3ccc(CCC)cc3)cc2)CC1	661
CC1(C)NC(N)=NC(=N)N1OCCCOc1cccc2ccccc12	3.2
COc1cccc(C2C(C(=O)Nc3ccccc3)=C(C)N=c3sc(=Cc4ccc(O)cc4)c(=O)n32)c1 (centres undefined)	579
COc1ccc(CN2CCCC(OC(c3ccc(F)cc3)c3ccc(F)cc3)C2)c(O)c1 (centres undefined)	607
CCCCNC(=N)Nc1ccc(OCCCOc2ccc(NC(=N)NCCCC)cc2)cc1	164
COC(=O)/C=C/c1ccc(CC(C)NCC(O)c2cccc(Br)c2)cc1 (centres undefined)	725
CCN1CCN(c2cc(C)c3cc(NC(=O)c4ccc(Br)o4)ccc3n2)CC1	755
CCOc1c(OC)ccc2c1CCN(CCN1CCC(CNC(=O)c3ccc(-c4ccc(C(F)(F)F)cc4)cc3)CC1)C2	849
CC(C)Oc1ccccc1-c1csc(C(=O)NCC2CCN(Cc3ccc(C(C)(C)C)cc3)C2)c1 (centres undefined)	1070
Cc1cc(CNC(=O)c2ccc(-c3ccc(-c4nc5cc(C(F)(F)F)ccc5[nH]4)s3)cc2)on1	732
CC(C)CC(=O)N(Cc1ccc(-c2ccc(CNC3Cc4ccccc4C3)cc2)cc1)C1CCNCC1	1170
O=[N+]([O-])c1ccc(-n2nc(Cc3ccccc3)n(Cc3cccc(F)c3)c2=S)c(C(F)(F)F)c1	769
Cc1nc(N)nc(N)c1Oc1cccc(Cl)c1	871
O=c1cnc2ccc(F)cc2n1CCN1CCC(NCc2cc(-c3ccccc3)cs2)CC1	863
Fc1cc(Cl)ccc1Nc1ccnc2cc(I)ccc12	1130
Nc1nccc2ccc(-c3ccc(Oc4ccccc4)cc3)cc12	278
Cc1nc(-c2nc(NCCc3ccncc3)ncc2-c2ccsc2)sc1C	298
CN(C)Cc1cccc(-c2cnc(N)c(-c3nc4cc(S(C)(=O)=O)ccc4[nH]3)c2)c1	887
O=C(CCCCCCc1ccccc1)Nc1ccc2nc3c(c(NCc4ccccc4)c2c1)CCCC3	358
CN1CCN(c2cc(-c3cccc(C(F)(F)F)c3)nc(-c3ccncc3)n2)CC1	731
COc1ccccc1-c1ccc(C(=O)NCC2CCCN(Cc3cccc(C(F)(F)F)c3)C2)s1 (centres undefined)	1540
CN1CCN(c2cc(NC(=O)c3ccc(-c4ccc(C#N)cc4)cc3)ccc2Cl)CC1	464
O=C(Nc1ccc(F)cc1)c1ccc(C(=O)NC2CCN(CC3CCCCC3)CC2)cc1	544
C=C1N(C)c2cc([N+](=O)[O-])c(N)cc2C1(C)C	486

Structure (SMILES)	XC50 [nM]
COc1ccc(CNC2CCN(C)CC2)cc1-c1ccc(OC)c(S(=O)(=O)NCc2ccccc2)c1	951
O=C(Nc1ccc2[nH]c(-c3ccc4nc(NC(=O)C5CCCCC5)sc4c3)nc2c1)C1CCCCC1	612
COc1ccc(NC(=O)CCNc2cc(C)nc(NCc3cccc(C)c3)n2)cc1	1090
OC(CNC1CCCCCCC1)c1ccc(Cl)c(Cl)c1 (centres undefined)	205
CC(C)(C)c1ccc(NC(=O)c2ccc(CN3CCCN(Cc4cccc(O)c4)CC3)cc2)cc1	665
COc1ccc2nc(-c3ccccc3)cc(NCCN(C)C)c2c1	731
OCCN1CCN(c2nc(Nc3cccc(F)c3)c3cnn(-c4ccccc4)c3n2)CC1	828
COc1ccc2nccc([C@@H](O)CN3CCC(NC(=O)/C=C/c4ccc5ccccc5n4)CC3)c2c1	993
CN(C)c1ccc(/N=C2/N/C(=N/c3ccc(N(C)C)cc3)c3ccccc32)cc1	848
N=c1n(CCN2CCCCC2)c2ccccc2n1CC(=O)c1cccc([N+](=O)[O-])c1	879
O=C(N[C@@H](Cc1ccccc1)C(=O)O)c1cc(-c2ccc(F)cc2)no1.O=C(N[C@@H](Cc1ccccc1)C(=O)O)c1conc1-c1ccc(F)cc1	802
CCC[C@@H]([C@@H](CC1CCCCC1)C(=O)N[C@H](C(=O)Nc1nccs1)C(C)(C)SCCOCCOCC)N(O)C=O	82.2
CCN1CCN(c2ccc(NC(=O)c3cc4c(C)nn(-c5ccccc5)c4s3)cc2C)CC1	757
CCCN1CCN(c2cc(NCC)c3c4c(onc24)-c2ccccc2C3=O)CC1	1060
COc1cc(COc2c(C)nc(N)nc2N)cc(OC)c1OC	332
CCN(CC)CCN(Cc1ccc(-c2ccc(C(F)(F)F)cc2)cc1)C(=O)Cn1c(CCc2ccc(F)c(F)c2)nc(=O)c2ccccc21	1580
COc1ccc2[nH]c(C(=O)Nc3cccc(-c4ccc(CN(C)C)cc4)c3)cc2c1	908
O=C(NC1CCN(Cc2ccc3c(c2)OCCO3)CC1)c1ccc(-c2cccc(Cl)c2)s1	1910
CN(C)CCCNc1nccc(N(C)c2ccc(NC(=O)Nc3cc(C(F)(F)F)ccc3F)cc2)n1	980
O=C(Nc1ccc(Oc2ccccc2)cc1)NC1CCC(CN2CCC(c3c[nH]c4ccccc34)CC2)CC1 (centres undefined)	573
N=C1N=C(N)NC2(CCCCC2)N1OCCCOc1cccc2ccccc12	3.2
CCCOC(=O)c1ccc(OCCCON2C(=N)N=C(N)NC2(C)C)cc1	3.2
CN1CCN(c2ccnc3ccc(NC(=O)N(C)c4ccc(Cl)c(Cl)c4)cc23)CC1	741
CCc1cc(C(=O)c2cccc(C)c2)c(NC(=O)CN2CCN(C(=O)c3ccco3)CC2)s1	451
Nc1[nH]c2ccccc2c(=O)c1-c1nc2ccccc2s1	303

Structure (SMILES)	XC50 [nM]
CC(NC(C)c1cccc(Cl)c1)C(=O)Nc1cc(C(F)(F)F)ccc1N1CCOCC1 (centres undefined)	1090
CC(C)(C)c1ccc(Cn2nc(C(=O)N3CCN(C(=O)C4CCCO4)CC3)c3ccccc32)cc1 (centres undefined)	1320
CCOc1ccc2nc(C)cc(N/N=C/c3cccc([N+](=O)[O-])c3)c2c1	664
c1ccc(CCNc2nc(NCC(c3ccccc3)c3ccccc3)c3nc[nH]c3n2)cc1	617
CC(C)(Oc1c(C2CCN(CCCCNC(=O)c3ccc(-c4ccc(Cl)cc4)cc3)CC2)ccc2c1CCCC2)C(N)=O	1090
CC(=O)c1ccccc1C(=O)N1CCOc2ccc(C(O)C(c3ccccc3)c3ccccc3)cc2C1 (centres undefined)	905
CN(CCCNCc1ccc2ccccc2c1)CCCNCc1ccc2ccccc2c1	391
Cc1cccc2nc(-c3ccc(-c4cccc(CNCc5ccccc5)c4)cc3)[nH]c12	246
N#Cc1ccc2c(c1)CN(C1CCC(NC(=O)C3=Cc4cc(Cl)ccc4OC3)CC1)CCC2 (centres undefined)	1330
O=C(NCCCCN1CCC(c2ccc(-c3ccco3)cc2)CC1)c1ccc(NC(=O)c2ccc(Cl)cc2)cc1	538
O=C(NCCc1ccccc1)N(Cc1ccccc1-c1cccc(CNCCc2ccccc2)c1)C1CCN(Cc2ccccc2)CC1	625
NC1=NC(c2ccccc2)(c2ccccc2)C(=O)N1Cc1ccc(-c2ccncc2)cc1	772
COc1ccc2[nH]c(C)cc(=NN=Cc3cccc(Cl)c3)c2c1	632
CC(C)CNC(=O)c1cncc(-c2ccc(CN(C)C3CCN(C)CC3)cc2)c1	878
N=C(N)c1ccc2[nH]c(-c3cc4cc(C(=N)N)ccc4o3)cc2c1	179
CCOc1ccccc1C(=O)N1CCc2cc3nccc(N4CCN5CCC[C@H]5C4)c3cc21	753
Cc1noc(C)c1-c1cccc(CNCc2ccc(-c3cccc(-c4nc5ccccc5[nH]4)c3)cc2)c1	569
CCCN1CCN(CCCNc2c3ccccc3nc3ccccc23)CC1	547
Cc1c(S(=O)(=O)Nc2ccc3nccc(N4CC(C)NC(C)C4)c3c2)sc2ccc(Cl)cc12 (centres undefined)	1020
Cc1ccc(S(=O)(=O)c2nc(S(=O)(=O)c3ccccc3)sc2NCC2CCCO2)cc1 (centres undefined)	1020
CC(=NNC(N)=O)C1=C(O)C(c2ccccc2)N(C2CCCCC2)C1=O (centres undefined)	33
Cc1cc(N2CCC(NS(=O)(=O)c3cccc4cccnc34)CC2)nc(Nc2cccc(C#N)c2)n1	748
COc1ccc(CCNc2ccnc3cc(Cl)ccc23)cc1OC	891
Cc1nc(N)nc(N)c1-c1cccc(Cl)c1	1170
CC(C)NCc1ccc(-c2cccc(NC(=O)c3ccc(Cl)cc3)c2)cc1	289

Structure (SMILES)	XC50 [nM]
CCCCCCNCCOc1ccc(-c2nc(-c3ccccc3)c(-c3ccccc3)[nH]2)cc1	669
COc1ccc(NC(=O)[C@H](Cc2ccccc2)Nc2cc(C)nc(NCCN3CCCC3)n2)cc1	1390
COCCn1c(-c2cccc(Cl)c2)nn(-c2ccc([N+](=O)[O-])cc2Cl)c1=S	737
COc1cccc(CN2CCCC(OC(c3ccc(F)cc3)c3ccc(F)cc3)C2)c1O (centres undefined)	788
N#Cc1cncc(-c2nc3c(N4CCC(N5CCCC5)CC4)cccc3n2CCNCc2ccccc2)c1	874
Nc1ccc(-c2ccc(NC(=O)Nc3ccccc3)cc2)cn1	920
CC(C)n1ncc2c(C(=O)N3CCCc4ccccc43)cc(-c3ccccc3)nc21	601
Oc1ccc(CCNc2nc(N/N=C/c3ccc(Cl)cc3)nc(N3CCNCC3)n2)cc1	583
O=C(Nc1ccc(Cl)c(C(F)(F)F)c1)c1ccc(C(=O)Nc2ccc(Cl)c(C(F)(F)F)c2)cc1	1000
O=C(NCCCCN1CC=C(c2ccc3c(c2OCC2CC2)CCCC3)CC1)c1ccc(-c2ccc(C(F)(F)F)cc2)cc1	540
NC(=O)c1ccccc1Nc1nc(Nc2cc[nH]n2)ncc1Cl	958
CCc1c[nH]c2c(N3CCCC3=O)cc(C(=O)N[C@@H](Cc3ccccc3)[C@H](O)CNC3CCCCC3)cc12	102
Clc1cc(Cl)c2cc(CNCCCNc3ccc4ccccc4n3)[nH]c2c1	339
COCCOCCOCCn1ccc2c3c(N)nc(N)nc3ccc21	263
Cc1cc(N/N=C/c2ccccc2[N+](=O)[O-])c2cccc(C)c2n1	548
N#Cc1cccc(CNC(=O)c2cccc(Nc3ccnc4ccc(F)cc34)c2)c1	987
COc1ccc2nccc([C@@H](O)CN3CCC(NCc4cc5c(Cl)cccc5[nH]4)CC3)c2c1	155
O=c1ccc2ccc(F)c3c2n1CC3CN1CCC(NCc2cccc(-c3cccs3)c2)CC1 (centres undefined)	834
O=C(Nc1cc(Cl)ccc1O)c1cc(-c2ccccc2O)no1	1090
CCCN(CCC)S(=O)(=O)c1ccc(C(=O)N2CCC(C(=O)OCC)CC2)cc1	803
Nc1nc(N)c2cc(CNc3ccc(Cl)c(Cl)c3)ccc2n1	1020
CC1(C)OC[C@]2(C)[C@@H](CC[C@]3(C)C4=CC(=O)CCC4CC[C@@H]23)O1 (some centres undefined)	282
CN(C(=O)Nc1ccc(F)cc1)C1CCN(CCCCCNC(=O)/C=C/c2ccc(Cl)c(Cl)c2)CC1	886
O=C(Nc1ccc(-c2cccc(-c3nc4ccccc4[nH]3)c2)cc1)Nc1ccsc1	246
